Assay results taken from US7420001B2 (Wyeth, priority 2003, dated 2008).
Read-outs that look alike come from different tables or passages of the source.

Assays:
MMP-2 = target: T1, MMP-2 (Homo sapiens, UniProt P08253); experiment: In-vitro fluorescence assay of MMP-2 activity; type: biochemical; details: recombinant human MMP-2; read-out: MMP-2 IC50
T1 construct: purchased Oncogene Research Products (Calbiochem) PF023
T1 sequence (P08253 110-660): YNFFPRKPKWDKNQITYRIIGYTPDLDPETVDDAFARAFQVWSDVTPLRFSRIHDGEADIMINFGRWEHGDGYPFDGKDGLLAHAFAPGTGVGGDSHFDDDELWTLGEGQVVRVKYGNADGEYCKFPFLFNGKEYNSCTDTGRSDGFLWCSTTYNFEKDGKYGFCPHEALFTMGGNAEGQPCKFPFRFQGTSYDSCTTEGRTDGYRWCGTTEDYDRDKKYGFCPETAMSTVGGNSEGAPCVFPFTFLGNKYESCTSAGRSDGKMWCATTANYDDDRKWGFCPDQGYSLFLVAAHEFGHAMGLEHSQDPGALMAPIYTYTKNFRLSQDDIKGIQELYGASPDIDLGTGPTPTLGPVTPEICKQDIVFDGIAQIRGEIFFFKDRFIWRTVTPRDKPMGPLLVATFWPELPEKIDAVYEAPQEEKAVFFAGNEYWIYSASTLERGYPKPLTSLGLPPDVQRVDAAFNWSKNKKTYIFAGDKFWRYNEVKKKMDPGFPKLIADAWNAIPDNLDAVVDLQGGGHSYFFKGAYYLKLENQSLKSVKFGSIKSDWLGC

MMP-13 = target: T2, MMP-13 (Homo sapiens, UniProt P45452); experiment: In-vitro fluorescence assay of MMP-13 activity; type: biochemical
T2 construct: made in house

[1] = recombinant human catalytic domain of MMP-13, read-out: MMP-13 IC50

SMILES	IC50 (MMP-2)	IC50 (MMP-13; [1])	IC50 (MMP-13; MMP-13 IC50, recombinant human catalytic domain of MMP-13)
C#Cc1cccc2oc(C(=O)Nc3ccc(-c4ccc(S(=O)(=O)N[C@H](C(=O)O)C(C)C)cc4)cc3)c(C)c12 [Example 33, L-2-{4′-[(4-Ethynyl-3-methyl-benzofuran-2-carbonyl)-amino]-biphenyl-4-sulfonylamino}-3-methyl-butyric acid]	595 nM	6.1 nM	–
CCc1ccc2oc(C(=O)Nc3ccc(-c4ccc(S(=O)(=O)N[C@H](C(=O)O)C(C)C)cc4)cc3)c(C)c2c1OC [Example 86, N-[(4′-{[(5-Ethyl-4-methoxy-3-methyl-1-benzofuran-2-yl)carbonyl]amino}-1,1′-biphenyl-4-yl)sulfonyl]-L-valine]	2500 nM	3.8 nM	–
CC(Oc1cccc2oc(C(=O)Nc3ccc(-c4ccc(S(=O)(=O)N[C@H](C(=O)O)C(C)C)cc4)cc3)cc12)C(=O)O (stereo partly drawn) [Example 14, 4′-{[4-(1-Carboxy-ethoxy)-benzofuran-2-carbonyl]-amino}-biphenyl-4-sulfonyl-L-valine]	916 nM	11 nM	–
NC(=O)C[C@H](NS(=O)(=O)c1ccc(-c2ccc(NC(=O)c3cc4ccccc4o3)cc2)cc1)C(=O)O [Example 15, N2-({4′-[(1-Benzofuran-2-ylcarbonyl)animo]-1,1′-biphenyl-4-yl}sulfonyl)-L-Asparagine]	10 nM	2.5 nM	–
Cc1c(C(=O)Nc2ccc(-c3ccc(S(=O)(=O)N[C@H](C(=O)O)C(C)C)cc3)cc2)oc2cccc(C#CCC(C)C)c12 [Example 28, L-3-Methyl-2-(4′-{[3-methyl-4-(4-methyl-pent-1-ynyl)-benzofuran-2-carbonyl]-amino}-biphenyl-4-sulfonylamino)-butyric acid]	6640 nM	47 nM	–
Cc1c(C(=O)Nc2ccc(-c3ccc(S(=O)(=O)N[C@H](C(=O)O)C(C)C)cc3)cc2)oc2cccc(N)c12 [Example 61, L-2-{4′-[(4-Amino-3-methyl-benzofuran-2-carbonyl)-amino]-biphenyl-4-sulfonylamino}-3-methyl-butyric acid]	323 nM	4.3 nM	–
Cc1c(C(=O)Nc2ccc(-c3ccc(S(=O)(=O)N[C@H](C(=O)O)C(C)C)cc3)cc2)oc2ccc(Cl)c(OC(C)C)c12 [Example 115, (S)-2-{4′-[(5-Chloro-4-isopropoxy-3-methyl-benzofuran-2-carbonyl)-amino]-biphenyl-4-sulfonylamino}-3-methyl-butyric acid]	3010 nM	11 nM	–
CC(C)[C@H](NS(=O)(=O)c1ccc(-c2ccc(NC(=O)c3cc4ccccc4s3)cc2)cc1)C(=O)O [Example 12, 4′-[(Benzo[β]thiophene-2-carbonyl)-amino]-biphenyl-4-sulfonyl-L-valine]	149 nM	6.2 nM	–
CCc1ccc2oc(C(=O)Nc3ccc(-c4ccc(S(=O)(=O)N[C@H](C(=O)O)C(C)C)cc4)cc3)c(C)c2c1OC(C)C [Example 88, N-[(4′-{[(5-Ethyl-4-isopropoxy-3-methyl-1-benzofuran-2-yl)carbonyl]amino}-1,1′-biphenyl-4-yl)sulfonyl]-L-valine]	7000 nM	27 nM	–

The next lines start with the values.

IC50 (MMP-2)	IC50 (MMP-13; [1])	IC50 (MMP-13; MMP-13 IC50, recombinant human catalytic domain of MMP-13)	SMILES
6940 nM	63 nM	–	Cc1c(C(=O)Nc2ccc(-c3ccc(S(=O)(=O)N(C)[C@H](C(=O)O)C(C)C)cc3)cc2)oc2cccc(NS(C)(=O)=O)c12 [Example 64, L-2-({4′-[(4-Methanesulfonylamino-3-methyl-benzofuran-2-carbonyl)-amino]-biphenyl-4-sulfonyl}-methyl-amino)-3-methyl-butyric acid]
2500 nM	152 nM	–	Cc1c(C(=O)Nc2ccc(-c3ccc(S(=O)(=O)N[C@H](C(=O)O)C(C)C)cc3)cc2)oc2cccc(C#CC(C)(C)C)c12 [Example 34, L-2-(4′-{[4-(3,3-Dimethyl-but-1-ynyl)-3-methyl-benzofuran-2-carbonyl]-amino}-biphenyl-4-sulfonylamino)-3-methyl-butyric acid]
2050 nM	8.8 nM	–	CCOC(=O)COc1cccc2oc(C(=O)Nc3ccc(-c4ccc(S(=O)(=O)N[C@H](C(=O)O)C(C)C)cc4)cc3)c(C)c12 [Example 157, L-2-{4′-[(4-Ethoxycarbonylmethoxy-3-methyl-benzofuran-2-carbonyl)-amino]-biphenyl-4-sulfonylamino}-3-methyl-butyric acid]
5000 nM	28 nM	–	Cc1c(C(=O)Nc2ccc(-c3ccc(S(=O)(=O)N[C@H](C(=O)O)C(C)C)cc3)cc2)oc2cccc(N3CCCC3)c12 [Example 63, L-3-Methyl-2-{4′-[(3-methyl-4-pyrrolidin-1-yl-benzofuran-2-carbonyl)-amino]-biphenyl-4-sulfonylamino}-butyric acid]
20000 nM	199 nM	–	COc1c(Cl)cc(Cl)c2oc(C(=O)Nc3ccc(-c4ccc(S(=O)(=O)N[C@H](C(=O)O)C(C)C)cc4)cc3)c(C)c12 [Example 117, (S)-2-{4′-[(5,7-Dichloro-4-methoxy-3-methyl-benzofuran-2-carbonyl)-amino]-biphenyl-4-sulfonylamino}-3-methyl-butyric acid]
207 nM	1.2 nM	–	CCc1cccc2oc(COc3ccc(-c4ccc(S(=O)(=O)N[C@H](C(=O)O)C(C)C)cc4)cc3)c(C)c12 [Example 146, L-2-[4′-(4-Ethyl-3-methylbenzofuran-2-ylmethoxy)-biphenyl-4-sulfonylamino]-3-methyl butyric acid]
1150 nM	4.8 nM	–	Cc1cccc2oc(C(=O)Nc3ccc(-c4ccc(S(=O)(=O)N[C@H](C(=O)O)C(C)C)cc4)cc3)c(C)c12 [Example 93, N-[(4′-{[(3,4-Dimethyl-1-benzofuran-2-yl)carbonyl]amino}-1,1′-biphenyl-4-yl)sulfonyl]-L-valine]
1630 nM	–	32 nM	Cc1c(C(=O)Nc2ccc(-c3ccc(S(=O)(=O)N[C@H](C(=O)O)C(C)C)cc3)cc2)oc2cccc(N3CCOCC3)c12 [Example 114, (S)-3-methyl-2-{4′-[(3-methyl-4-morpholin-4-yl-benzofuran-2-carbonyl)-amino]-biphenyl-4-sulfonylamino}-butyric acid]
198 nM	8.1 nM	–	COc1c(Br)ccc2oc(CNc3ccc(-c4ccc(S(=O)(=O)N[C@H](C(=O)O)C(C)C)cc4)cc3)c(C)c12 [Example 150, N-[(4′-{[(5-bromo-4-methoxy-3-methyl-1-benzofuran-2-yl)methyl]amino}-1,1′-biphenyl-4-yl)sulfonyl]-L-valine]
2070 nM	8.4 nM	–	Cc1c(C(=O)Nc2ccc(-c3ccc(S(=O)(=O)N[C@H](C(=O)O)C(C)C)cc3)cc2)oc2cccc(C(C)O)c12 (stereo partly drawn) [Example 95, N-{[4′-({[4-(1-Hydroxyethyl)-3-methyl-1-benzofuran-2-yl]carbonyl}amino)-1,1′-biphenyl-4-yl]sulfonyl}-L-valine]
1120 nM	89.3 nM	–	CC(C)[C@@H](NS(=O)(=O)c1ccc(-c2ccc(OCc3nc4ccccc4n3C)cc2)cc1)C(=O)O [Example 138, D-3-Methyl-2-[4′-(1-methyl-1H-benzoimidazol-2-ylmethoxy)-biphenyl-4-sulfonylamino]-butyric acid]
9320 nM	37 nM	–	Cc1c(C(=O)Nc2ccc(-c3ccc(S(=O)(=O)N[C@H](C(=O)O)C(C)C)cc3)cc2)oc2cccc(CCCC(C)C)c12 [Example 29, L-3-Methyl-2-(4′-{[3-methyl-4-(4-methyl-pentyl)-benzofuran-2-carbonyl]-amino}-biphenyl-4-sulfonylamino)-butyric acid]
